{
  "source": "paper PMC10202811",
  "about": "(Nature Medicine, 2023)",
  "assay": "Toxicity assessment (CTCAE version 4): treatment-related AEs, DLTs, dose reductions, RP2D; phase 1 NANT2015-02",
  "conditions": "for Toxicity Maximum Grade per patient: Sinus tachycardia / Toxicity Maximum Grade per patient: Neutrophil count decreased: CTCAE grade",
  "method": "Five DLs (45, 60, 75, 95 and 115 mg/m^2/dose) were assessed in A1, using a 3 + 3 design. […] Myeloid growth factor was given 24 hours after the completion of topotecan/cyclophosphamide on B2, according to institutional standards. Instructions and hands-on training for a tablet dispersion formulation, validated by Pfizer, was provided to families of patients who could not swallow tablets.\nInitially, this was the only DL planned, but, with a subsequent amendment, a second DL was added to cohort A2 (150 mg). […] Finally, because of the nature of the patients in cohort A2 (which had only two planned DLs), an expansion of up to six additional patients was planned for the highest DL tested with zero or one DLT in six DLT-evaluable patients. Accrual could continue in the expansion cohort as long as none, or at most one, of the patients experienced DLT in the DLT observation period; if two or more patients experienced DLT in the DLT observation period, this would lead to a discussion of the suitability of this dose. The probability of observing […] with DLT, out of six patients, is 0.11, 0.22, 0.47, 0.68 and 0.77 when the true probability of DLT is 0.10, 0.15, 0.25, 0.35 and 0.40, respectfully.\nPatients who were not evaluable for DLT were replaced for dose-escalation purposes. […] The MTD was defined as the highest DL tested at which zero of six or one of six patients experience DLT. After determination of the MTD and review of all toxicities, and provided that other safety considerations were acceptable, the MTD was labeled the RP2D.\nToxicity was graded according to CTCAE version 4. DLT definitions included only toxicities deemed at least possibly related to therapy. For A1 and A2, hematologic DLT was defined as grade 4 thrombocytopenia or grade 4 neutropenia >7-day duration or a delay in the start of subsequent course by more than 14 days due to ongoing thrombocytopenia or neutropenia, in the absence of bone marrow disease progression seen on clinically indicated bone marrow biopsy (if performed). For cohort B2, hematological DLT is defined as a delay in the start of subsequent course by more than 14 days due to ongoing thrombocytopenia or neutropenia, in the absence of bone marrow disease progression seen on clinically indicated bone marrow biopsy after the first dose reduction of cyclophosphamide and topotecan. Non-hematologic DLT was defined as any non-hematologic toxicity that delayed the start of a subsequent cycle by more than 14 days or any grade ≥3 toxicity, with the exception of the following grade 3 toxicities: nausea, vomiting, anorexia or dehydration resolving to grade ≤2 within 72 hours; increase in hepatic transaminase or electrolyte abnormality resolving eligibility levels within 7 days; diarrhea persisting for less than 72 hours; fever; infection; febrile neutropenia; high cholesterol or triglycerides if responsive (to ≤grade 2) with statin treatment; weight gain; and hyperglycemia if responsive (to <grade 2) with dietary modification.",
  "key": {"[1]": {"conditions": "Cohort A1, neurotoxicity, one line per patient (PID)"}, "[2]": {"conditions": "Cohort A1, one line per patient (PID)"}},
  "note": "Values joined by “and” are separate entries in the source; they are usually repeats but may differ in a detail not shown here. Equal values may be shown once. “Also recorded” adds a separate entry of the source. Marks after values point to notes of the source that are not given here.",
  "data": [
    {"compound": "C[C@H]1Oc2cc(cnc2N)-c2c(nn(C)c2C#N)CN(C)C(=O)c2ccc(F)cc21", "note": "[Lorlatinib, (10R)-7-amino-12-fluoro-2,10,16-trimethyl-15-oxo-10,15,16,17-tetrahydro-2H-8,4-(metheno)pyrazolo[4,3-h][2,5,11]-benzoxadiazacyclotetradecine-3-carbonitrile]", "values": [
      {"measurement": "patients developing grade 2 CNS effects", "setting": "<18 years (cohorts A1 and B2), two of 33", "result": 6, "unit": "%"},
      {"measurement": "patients requiring a dose reduction", "setting": "<18 years, lorlatinib monotherapy", "result": 9, "unit": "%"},
      {"measurement": "CNS DLT (CTCAE V4)", "setting": "A1 (< 18 yrs), DL 5 (115 mg/m^2)", "result": "Grade 2 hallucination/insomnia"},
      {"measurement": "DLT", "setting": "A1, DL5 (115 mg/m^2), course 1", "result": "YES"},
      {"measurement": "Toxicity reason for Dose reduction", "setting": "A1, DL5 (115 mg/m^2), course 1", "result": "Grade 3 Diarrhea (lactose intolerance)"},
      {"measurement": "DLT", "setting": "A1, DL5 (115 mg/m^2), course 3", "result": "Delayed DLT"},
      {"measurement": "Toxicity reason for Dose reduction", "setting": "A1, DL5 (115 mg/m^2), course 3", "result": "Grade 2 Hallucination/insomnia^1"},
      {"measurement": "CNS DLT (CTCAE V4)", "setting": "A2 (≥ 18 yrs), 100 mg", "result": "Grade 2 memory impairment"},
      {"measurement": "CNS DLT (CTCAE V4)", "setting": "A2 (≥ 18 yrs), 150 mg", "result": "Grade 2-4 hallucinations, delusions, suicidal ideations; also recorded: Grade 3 agitation^g; also recorded: Grade 4 Mania"},
      {"measurement": "DLT", "setting": "A2, 100 mg, course 3", "result": "Delayed DLT^2"},
      {"measurement": "Toxicity reason for Dose reduction", "setting": "A2, 100 mg, course 3", "result": "Grade 3 Hyperglycemia"},
      {"measurement": "DLT", "setting": "A2, 100 mg, course 7", "result": "Delayed DLT"},
      {"measurement": "Toxicity reason for Dose reduction", "setting": "A2, 100 mg, course 7", "result": "Grade 2 Memory impairment"},
      {"measurement": "DLT", "setting": "A2, 150 mg, course 2", "result": "YES"},
      {"measurement": "Toxicity reason for Dose reduction", "setting": "A2, 150 mg, course 2", "result": "Grade 2-4 Delusions, psychosis, suicide attempt^3"},
      {"measurement": "DLT", "setting": "A2, 150 mg, course 2 (second patient)", "result": "YES"},
      {"measurement": "Toxicity reason for Dose reduction", "setting": "A2, 150 mg, course 3", "result": "Grade 2 Lower extremity edema^5"},
      {"measurement": "DLT", "setting": "A2, 150 mg, course 4", "result": "Delayed DLT"},
      {"measurement": "Toxicity reason for Dose reduction", "setting": "A2, 150 mg, course 4", "result": "Grade 2 Peripheral neuropathy/edema"},
      {"measurement": "Toxicity reason for Dose reduction", "setting": "A2, 150 mg, course 5", "result": "Grade 2 Peripheral neuropathy^6"},
      {"measurement": "CNS DLT (CTCAE V4)", "setting": "B2 (< 18yrs), DL 5 (115 mg/m^2)", "result": "Grade 2 anxiety, depression, somnolence, hypersomnia"},
      {"measurement": "DLT", "setting": "B2, DL5 (115 mg/m^2), course 3", "result": "Delayed DLT"},
      {"measurement": "Toxicity reason for Dose reduction", "setting": "B2, DL5 (115 mg/m^2), course 3", "result": "Grade 2 anxiety, depression, somnolence, hypersomnia"},
      {"measurement": "Patients with DLT in course 1", "setting": "Cohort A1, DL1 (45 mg/m^2)", "result": 0},
      {"measurement": "Patients with DLT in course 2", "setting": "Cohort A1, DL1 (45 mg/m^2)", "result": 0},
      {"measurement": "Patients with DLT in other courses", "setting": "Cohort A1, DL1 (45 mg/m^2)", "result": 0},
      {"measurement": "Patients with DLT in course 1", "setting": "Cohort A1, DL2 (60 mg/m^2)", "result": 0},
      {"measurement": "Patients with DLT in course 2", "setting": "Cohort A1, DL2 (60 mg/m^2)", "result": 0},
      {"measurement": "Patients with DLT in other courses", "setting": "Cohort A1, DL2 (60 mg/m^2)", "result": 0},
      {"measurement": "Patients with DLT in course 1", "setting": "Cohort A1, DL3 (75 mg/m^2)", "result": 0},
      {"measurement": "Patients with DLT in course 2", "setting": "Cohort A1, DL3 (75 mg/m^2)", "result": 0},
      {"measurement": "Patients with DLT in other courses", "setting": "Cohort A1, DL3 (75 mg/m^2)", "result": 0},
      {"measurement": "Patients with DLT in course 1", "setting": "Cohort A1, DL4 (95 mg/m^2)", "result": 0},
      {"measurement": "Patients with DLT in course 2", "setting": "Cohort A1, DL4 (95 mg/m^2)", "result": 0},
      {"measurement": "Patients with DLT in other courses", "setting": "Cohort A1, DL4 (95 mg/m^2)", "result": 0},
      {"measurement": "Patients with DLT in course 1", "setting": "Cohort A1, DL5 (115 mg/m^2)", "result": "1^b"},
      {"measurement": "Patients with DLT in course 2", "setting": "Cohort A1, DL5 (115 mg/m^2)", "result": 0},
      {"measurement": "Patients with DLT in other courses", "setting": "Cohort A1, DL5 (115 mg/m^2)", "result": "1^b"},
      {"measurement": "Toxicity Maximum Grade per patient: Sinus tachycardia", "setting": "Cohort A1, patient PID 9", "result": 2},
      {"measurement": "Toxicity Maximum Grade per patient: Sinus tachycardia", "setting": "Cohort A1, patient PID 17", "result": 1},
      {"measurement": "Toxicity Maximum Grade per patient: Sinus tachycardia", "setting": "Cohort A1, patient PID 18", "result": 1},
      {"measurement": "Toxicity Maximum Grade per patient: Neutrophil count decreased", "setting": "Cohort A1, patient PID 21", "result": 2},
      {"measurement": "Toxicity Maximum Grade per patient: Neutrophil count decreased", "setting": "Cohort A1, patient PID 31", "result": 3},
      {"measurement": "Amnesia (CNS effect)", "setting": "Cohort A1, grade 1-4 in c1-c4", "result": "0 (0)"},
      {"measurement": "Confusion (CNS effect)", "setting": "Cohort A1, grade 1-4 in c1-c4", "result": "0 (0)"},
      {"measurement": "Delirium (CNS effect)", "setting": "Cohort A1, grade 1-4 in c1-c4", "result": "0 (0)"},
      {"measurement": "Delusions (CNS effect)", "setting": "Cohort A1, grade 1-4 in c1-c4", "result": "0 (0)"},
      {"measurement": "Dysarthria (CNS effect)", "setting": "Cohort A1, grade 1-4 in c1-c4", "result": "0 (0)"},
      {"measurement": "Euphoria (CNS effect)", "setting": "Cohort A1, grade 1-4 in c1-c4", "result": "0 (0)"},
      {"measurement": "Hypersomnia (CNS effect)", "setting": "Cohort A1, grade 1-4 in c1-c4", "result": "0 (0)"},
      {"measurement": "Mania (CNS effect)", "setting": "Cohort A1, grade 1-4 in c1-c4", "result": "0 (0)"},
      {"measurement": "Paresthesia (CNS effect)", "setting": "Cohort A1, grade 1-4 in c1-c4", "result": "0 (0)"},
      {"measurement": "Restlessness (CNS effect)", "setting": "Cohort A1, grade 1-4 in c1-c4", "result": "0 (0)"},
      {"measurement": "Somnolence (CNS effect)", "setting": "Cohort A1, grade 1-4 in c1-c4", "result": "0 (0)"},
      {"measurement": "Stuttering (CNS effect)", "setting": "Cohort A1, grade 1-4 in c1-c4", "result": "0 (0)"},
      {"measurement": "Suicidal ideation (CNS effect)", "setting": "Cohort A1, grade 1-4 in c1-c4", "result": "0 (0)"},
      {"measurement": "Agitation: Toxicity Maximum Grade per patient", "setting": "[1]", "result": 1},
      {"measurement": "Anxiety: Toxicity Maximum Grade per patient", "setting": "[1]", "result": 1},
      {"measurement": "Cognitive disturbance: Toxicity Maximum Grade per patient", "setting": "[1]", "result": 1},
      {"measurement": "Concentration impairment: Toxicity Maximum Grade per patient", "setting": "[1]", "result": 1},
      {"measurement": "Depression: Toxicity Maximum Grade per patient", "setting": "[1]", "result": 1},
      {"measurement": "Hallucinations: Toxicity Maximum Grade per patient", "setting": "[1]", "result": 2},
      {"measurement": "Headache: Toxicity Maximum Grade per patient", "setting": "[1]", "result": 1},
      {"measurement": "Memory impairment: Toxicity Maximum Grade per patient", "setting": "[1]", "result": 1},
      {"measurement": "Alanine aminotransferase increased: Toxicity Maximum Grade per patient", "setting": "[2]", "result": "1 and 2"},
      {"measurement": "Alkaline phosphatase increased: Toxicity Maximum Grade per patient", "setting": "[2]", "result": "1 and 2"},
      {"measurement": "Anemia: Toxicity Maximum Grade per patient", "setting": "[2]", "result": "2 and 1 and 3"},
      {"measurement": "Aspartate aminotransferase increased: Toxicity Maximum Grade per patient", "setting": "[2]", "result": "1 and 3 and 2"},
      {"measurement": "Cholesterol high: Toxicity Maximum Grade per patient", "setting": "[2]", "result": "2 and 1 and 3"},
      {"measurement": "Creatinine increased: Toxicity Maximum Grade per patient", "setting": "[2]", "result": 1},
      {"measurement": "Diarrhea: Toxicity Maximum Grade per patient", "setting": "[2]", "result": "1 and 3"},
      {"measurement": "Edema limbs: Toxicity Maximum Grade per patient", "setting": "[2]", "result": 1},
      {"measurement": "Electrocardiogram QT corrected interval prolonged: Toxicity Maximum Grade per patient", "setting": "[2]", "result": 1},
      {"measurement": "Fatigue: Toxicity Maximum Grade per patient", "setting": "[2]", "result": 1},
      {"measurement": "Flatulence: Toxicity Maximum Grade per patient", "setting": "[2]", "result": "2 and 1"},
      {"measurement": "Gastroesophageal reflux disease: Toxicity Maximum Grade per patient", "setting": "[2]", "result": 2},
      {"measurement": "Hyperglycemia: Toxicity Maximum Grade per patient", "setting": "[2]", "result": "1 and 3"},
      {"measurement": "Hypertriglyceridemia: Toxicity Maximum Grade per patient", "setting": "[2]", "result": "1 and 2 and 3"},
      {"measurement": "INCREASED APPETITE: Toxicity Maximum Grade per patient", "setting": "[2]", "result": 1},
      {"measurement": "Irritability: Toxicity Maximum Grade per patient", "setting": "[2]", "result": 1},
      {"measurement": "Lymphocyte count decreased: Toxicity Maximum Grade per patient", "setting": "[2]", "result": "1 and 3"}
    ]}
  ]
}
